System: GST-p53 DNA binding domain (aa 92-aa 312)
Experiment: Scintillation Proximity Assay (displacement of 3H-labeled p53 binder)
Conditions: percentage of 3H-labeled ligand remaining bound, number in brackets = average of n
Protocol: [drawing 38] (^3H at C bearing the chlorophenyl groups and the piperazinyl group), a radiolabeled small molecule which binds to p53, and the GST-p53 DNA binding domain (aa 92-aa 312), a quantitative screening assay was used to determine if various molecules comprise p53 binding activity. The assay is based on Scintillation Proximity Assay (SPA) technology. The complex of GST-p53,
[drawing 39] and Glutathione-SPA beads (Amersham Biosciences) were incubated with mixing for 1 hour at room temperature in the presence of the compounds to be screened. The signal was read on a Microbeta.
The numerical values expressed refer to the percentage of labeled
[drawing 40] remaining bound to the mutant p53 protein after exposure to the indicated compound.

CN(Cc1ccccc1)Cc1nc2ccccc2c(=O)[nH]1 [Formula 34]
SPA ASSAY % Residual T @ 2 ug/mL of drug (Average of): 36.8%

CN(C)CCCNc1nc(CN(C)Cc2ccc(Cl)cc2)nc2ccccc12 [Formula 74]
SPA ASSAY % Residual T @ 2 ug/mL of drug (Average of): 55.1%

CN(C)CCCNc1nc(CN(C)Cc2cccc(F)c2)nc2ccccc12 [Formula 67]
SPA ASSAY % Residual T @ 2 ug/mL of drug (Average of): 64.1%

CC(C)[C@H](Nc1nc(CNC(=O)N[C@H](C)c2ccccc2)nc2ccccc12)C(N)=O [Formula 59]
SPA ASSAY % Residual T @ 2 ug/mL of drug (Average of): 56.8%

CN(C)CCCNc1nc(CN(C)Cc2ccccc2)nc2ccccc12 [Formula 35]
SPA ASSAY % Residual T @ 2 ug/mL of drug (Average of): 22.2%

CN(C)CCCNc1nc(CN(C)CC2CCCCC2)nc2ccccc12 [Formula 111]
SPA ASSAY % Residual T @ 2 ug/mL of drug (Average of): 57.0%

CN(C)CCCNc1nc(CN2CCN(Cc3cccc4cc[nH]c34)CC2)nc2ccccc12 [Formula 13]
SPA ASSAY % Residual T @ 2 ug/mL of drug (Average of): 37.9%

CN(C)CCCNc1nc(CN2CCN(C(=O)Nc3ccc(Cl)c(Cl)c3)CC2)nc2ccccc12 [Formula 17]
SPA ASSAY % Residual T @ 2 ug/mL of drug (Average of): 29.9%

COC(=O)[C@@H](Nc1nc(CNC(=O)Nc2ccccc2-c2ccccc2)nc2ccccc12)C(C)C [Formula 57]
SPA ASSAY % Residual T @ 2 ug/mL of drug (Average of): 52.7%

CCC(C)(C)C1CCC(N(C)Cc2nc(NCCCN(C)C)c3ccccc3n2)CC1 (centres unmarked) [Formula 107]
SPA ASSAY % Residual T @ 2 ug/mL of drug (Average of): 6.3 (2) %

CN(C)CCCNc1nc(CN(C)C2CCC(C#N)(c3ccccc3)CC2)nc2ccccc12 (centres unmarked) [Formula 109]
SPA ASSAY % Residual T @ 2 ug/mL of drug (Average of): 5.5 (2) %

COC(=O)[C@@H](Nc1nc(CN2CCN(C(=O)Nc3ccc(C(C)C)cc3)CC2)nc2ccccc12)C(C)C [Formula 11]
SPA ASSAY % Residual T @ 2 ug/mL of drug (Average of): 39.5%

CN(C)CCCNc1nc(CN(C)Cc2cccn2S(=O)(=O)c2ccccc2)nc2ccccc12 [Formula 93]
SPA ASSAY % Residual T @ 2 ug/mL of drug (Average of): 45.1 (3) %

Clc1ccc(C(c2ccc(Cl)cc2)N2CCN(Cc3nc(N4CCN(c5ccccc5)CC4)c4ccccc4n3)CC2)cc1 [Formula 46]
SPA ASSAY % Residual T @ 2 ug/mL of drug (Average of): 87.5%

CN(C)CCCNc1nc(CN(C)Cc2ccccc2Sc2ccc(Cl)cc2)nc2ccccc12 [Formula 94]
SPA ASSAY % Residual T @ 2 ug/mL of drug (Average of): 53.7%

CN(C)CCCNc1nc(CN(C)C/C=C/c2ccccc2)nc2ccccc12 [Formula 71]
SPA ASSAY % Residual T @ 2 ug/mL of drug (Average of): 68.4%

CN(C)CCCNc1nc(CN(C)C2CCC(C(C)(C)C)CC2)nc2ccccc12 (centres unmarked) [Formula 103]
SPA ASSAY % Residual T @ 2 ug/mL of drug (Average of): 7.8 (2) %

CN(C)CCCNc1nc(CN(C)Cc2ccccc2C(=O)O)nc2ccccc12 [Formula 80]
SPA ASSAY % Residual T @ 2 ug/mL of drug (Average of): 65.6%

CN(C)CCCNc1nc(CN2CCN(C(c3ccccc3)c3ccc(OC(F)(F)F)cc3)CC2)nc2ccccc12 (centres unmarked) [Formula 10]
SPA ASSAY % Residual T @ 2 ug/mL of drug (Average of): 46.1%

CC1CCC(N(C)Cc2nc(NCCCN(C)C)c3ccccc3n2)CC1 (centres unmarked) [Formula 99]
SPA ASSAY % Residual T @ 2 ug/mL of drug (Average of): 56.5%

CN(C)CCCNc1nc(CN(C)Cc2cccc(C(F)(F)F)c2)nc2ccccc12 [Formula 85]
SPA ASSAY % Residual T @ 2 ug/mL of drug (Average of): 48.4 (3) %

NC(=O)C1CCN(c2nc(CN3CCN(C(c4ccc(Cl)cc4)c4ccc(Cl)cc4)CC3)nc3ccccc23)CC1 [Formula 52]
SPA ASSAY % Residual T @ 2 ug/mL of drug (Average of): 79.9%

COc1ccc(CN(C)Cc2nc(NCCCN(C)C)c3ccccc3n2)cc1 [Formula 73]
SPA ASSAY % Residual T @ 2 ug/mL of drug (Average of): 44.4%

CN(C)CCCNc1nc(CN(C)C2CCC2)nc2ccccc12 [Formula 95]
SPA ASSAY % Residual T @ 2 ug/mL of drug (Average of): 66.5%

Cc1cc(C)c(NC(=O)N2CCN(Cc3nc(NCCCN(C)C)c4ccccc4n3)CC2)c(C)c1 [Formula 39]
SPA ASSAY % Residual T @ 2 ug/mL of drug (Average of): 53.0%

CN(C)CCCNc1nc(CN(C)Cc2ccoc2)nc2ccccc12 [Formula 64]
SPA ASSAY % Residual T @ 2 ug/mL of drug (Average of): 50.7 (3) %

CC(C)COC(=O)[C@H](CCCN(C)C)Nc1nc(CN2CCN(C(c3ccc(Cl)cc3)c3ccc(Cl)cc3)CC2)nc2ccccc12 [Formula 117]
SPA ASSAY % Residual T @ 2 ug/mL of drug (Average of): 72.5%

CN(C)CCCNc1nc(CN(Cc2ccccc2)Cc2ccccc2)nc2ccccc12 [Formula 113]
SPA ASSAY % Residual T @ 2 ug/mL of drug (Average of): 61.7%

CN(C)CCCNc1nc(CN(C)Cc2nccs2)nc2ccccc12 [Formula 66]
SPA ASSAY % Residual T @ 2 ug/mL of drug (Average of): 37.0 (3) %

CN(C)CC[C@H](Nc1nc(CN2CCN(C(c3ccc(Cl)cc3)c3ccc(Cl)cc3)CC2)nc2ccccc12)C(N)=O [Formula 115]
SPA ASSAY % Residual T @ 2 ug/mL of drug (Average of): 44.8%

CN(C)CCCNc1nc(CN(C)Cc2cccc3c2OCO3)nc2ccccc12 [Formula 81]
SPA ASSAY % Residual T @ 2 ug/mL of drug (Average of): 46.8%

CN(C)CCCNc1nc(CN(C)Cc2cc3ccccc3o2)nc2ccccc12 [Formula 78]
SPA ASSAY % Residual T @ 2 ug/mL of drug (Average of): 45.9 (3) %

CN(C)CCCNc1nc(CN(C)Cc2ccc(-c3ccccc3)cc2)nc2ccccc12 [Formula 90]
SPA ASSAY % Residual T @ 2 ug/mL of drug (Average of): 68.1%

CCC(C)CN(C)Cc1nc(NCCCN(C)C)c2ccccc2n1 (centres unmarked) [Formula 62]
SPA ASSAY % Residual T @ 2 ug/mL of drug (Average of): 50.0 (3) %

CN(C)CCCNc1nc(CN(C)C2CCC(c3ccccc3)CC2)nc2ccccc12 (centres unmarked) [Formula 108]
SPA ASSAY % Residual T @ 2 ug/mL of drug (Average of): 21.0 (2) %

CN(C)CCCNc1nc(CN(C)Cc2ccc3ccccc3c2)nc2ccccc12 [Formula 83]
SPA ASSAY % Residual T @ 2 ug/mL of drug (Average of): 45.9 (3) %

CN(C)CCCNc1nc(CN(C)Cc2cccc3ccccc23)nc2ccccc12 [Formula 82]
SPA ASSAY % Residual T @ 2 ug/mL of drug (Average of): 52.9%

CN(C)CCCNc1nc(CN(C)Cc2cc(Cl)ccc2Cl)nc2ccccc12 [Formula 87]
SPA ASSAY % Residual T @ 2 ug/mL of drug (Average of): 49.5 (3) %

CCC(C)(C)C1CCC(N2CCN(Cc3nc(NCCCN(C)C)c4ccccc4n3)CC2)CC1 (centres unmarked) [Formula 15]
SPA ASSAY % Residual T @ 2 ug/mL of drug (Average of): 38.1%

CN(C)CCCNc1nc(CN(C)Cc2c(F)cccc2F)nc2ccccc12 [Formula 75]
SPA ASSAY % Residual T @ 2 ug/mL of drug (Average of): 58.9%

CN(C)CCCNc1nc(CN2CCN(C(c3ccccc3)c3ccc(OC(F)(F)F)cc3)CC2)nc2ccccc12 (centres unmarked) [Formula 9]
SPA ASSAY % Residual T @ 2 ug/mL of drug (Average of): 27.9%

CC(=O)N1CCC(N(C)Cc2nc(NCCCN(C)C)c3ccccc3n2)CC1 [Formula 101]
SPA ASSAY % Residual T @ 2 ug/mL of drug (Average of): 47.7 (3) %

CCN(CC)C(=O)C1CCCN(c2nc(CN3CCN(C(c4ccc(Cl)cc4)c4ccc(Cl)cc4)CC3)nc3ccccc23)C1 (centres unmarked) [Formula 49]
SPA ASSAY % Residual T @ 2 ug/mL of drug (Average of): 65.7%

Cc1cccc(C)c1CN(C)Cc1nc(NCCCN(C)C)c2ccccc2n1 [Formula 72]
SPA ASSAY % Residual T @ 2 ug/mL of drug (Average of): 69.7%

COc1ccc(Cl)cc1NC(=O)N(C)Cc1nc(NCCCN(C)C)c2ccccc2n1 [Formula 112]
SPA ASSAY % Residual T @ 2 ug/mL of drug (Average of): 48.4%

CN(C)CCCNc1nc(CN(C)C2CCC3CCCCC3C2)nc2ccccc12 (centres unmarked) [Formula 102]
SPA ASSAY % Residual T @ 2 ug/mL of drug (Average of): 28.7(3) %

CN(C)CCCNc1nc(CN(C)Cc2cccs2)nc2ccccc12 [Formula 65]
SPA ASSAY % Residual T @ 2 ug/mL of drug (Average of): 65.5%

CN(C)[C@@H]1CCN(c2nc(CN3CCN(C(c4ccc(Cl)cc4)c4ccc(Cl)cc4)CC3)nc3ccccc23)C1 [Formula 50]
SPA ASSAY % Residual T @ 2 ug/mL of drug (Average of): 53.0%

CN(C)CCCNc1nc(CN2CCN(Cc3cccc4ccccc34)CC2)nc2ccccc12 [Formula 14]
SPA ASSAY % Residual T @ 2 ug/mL of drug (Average of): 27.9%

CN(Cc1ccccc1)c1nc(CN2CCN(C(c3ccc(Cl)cc3)c3ccc(Cl)cc3)CC2)nc2ccccc12 [Formula 43]
SPA ASSAY % Residual T @ 2 ug/mL of drug (Average of): 80.7%
